This is an account of results in patent US11865124B2, “Vitamin c and doxycycline: a synthetic lethal combination therapy for eradicating cancer stem cells (CSCS)” (priority 2017, dated 2024).

Assay [1] relates to MCF7-DoxyR cells. As to the kind of experiment: Mammosphere formation assay (CSC propagation) in doxycycline-resistant MCF7 cells. Format: cell-based. From the text: To test this hypothesis, the inventors generated a cancer cell sub-population metabolically synchronized toward a glycolytic phenotype by chronically treating MCF7 cells with the FDA-approved antibiotic doxycycline, a mitochondrial inhibitor. Briefly, MCF7 cells were obtained from ATCC and cultured in DMEM (Sigma Aldrich). MCF7 cells resistant to doxycycline (MCF7-DoxyR cells) were selected by a stepwise exposure to increasing concentrations of doxycycline. […] It should be appreciated that other cancer cell lines and other mitochondrial (oxidation) inhibitors may be used.
To more directly assess functional CSC activity, mammosphere formation assays may be used. Briefly, a single cell suspension of MCF7 or MCF7 DoxyR cells may be prepared using enzymatic (1× Trypsin-EDTA, Sigma Aldrich), and manual disaggregation (25-gauge needle). Cells may be plated at a density of 500 cells/cm2 in mammosphere medium (DMEM-F12/B27/20-ng/ml EGF/PenStrep) in nonadherent conditions, in culture dishes coated with (2-hydroxyethylmethacrylate) (poly-HEMA, Sigma), in the presence of Atovaquone (FIG. 6A) or Chloroquine (FIG. 6B). Cells may be grown for 5 days and maintained in a humidified incubator at 37° C. at an atmospheric pressure in 5% (v/v) carbon dioxide/air. After 5 days for culture, spheres larger than 50 μm may be counted using an eye piece graticule, and the percentage of cells plated which formed spheres may be calculated. Mammosphere assays may be performed in triplicate and repeated three times independently.
The present approach further involves methods of testing the efficacy of glycolysis inhibitors on CSC propagation using other clinically-approved drugs that functionally behave as OXPHOS inhibitors (Irinotecan, Sorafenib, Niclosamide) or glycolysis inhibitors (Stiripentol) on mammosphere formation. Briefly, MCF7 DoxyR cells were cultured in low attachment plates and treated with Vehicle or increasing concentrations of the lactate dehydrogenase (LDH) inhibitor Stiripentol (2 μM to 100 μM) (FIG. 11A) or the OXPHOS inhibitors Irinotecan (500 nM to 80 μM) (FIG. 11B), Sorafenib (500 nM to 40 μM) (FIG. 11C), Berberine Chloride (500 nM to 10 μM) (FIG. 11D) and Niclosamide (FIG. 11E-F) for 5 days before counting. Independent experiments were performed in triplicate.

The subject of another assay is MCF7 CSCs. The note with it: control MCF7 CSCs; Bonuccelli et al, Oncotarget 2017; read-out: IC-50, MCF7 CSC propagation; cited from earlier work.
For assay [2], the system named is MCF7-DoxyR cells. The experiment in a line: Proliferation assay by EdU incorporation (flow cytometry). As to conditions: MCF7-DoxyR cells (chronic doxycycline) vs MCF7 cells. In kind it is cell-based. From the text:
To test this hypothesis, the inventors generated a cancer cell sub-population metabolically synchronized toward a glycolytic phenotype by chronically treating MCF7 cells with the FDA-approved antibiotic doxycycline, a mitochondrial inhibitor. Briefly, MCF7 cells were obtained from ATCC and cultured in DMEM (Sigma Aldrich). MCF7 cells resistant to doxycycline (MCF7-DoxyR cells) were selected by a stepwise exposure to increasing concentrations of doxycycline. Specifically, MCF7 cells were initially exposed to 12.5 μM doxycycline, followed by 3 weeks of treatment with 25 μM doxycycline, followed by 3 weeks of treatment with 50 μM doxycycline. […]
To determine functional effects on doxycycline on CSC propagation, proliferation may be measured by determining relative levels of EdU incorporation (EdU refers to the alkyne-containing thymidine analog (5-ethynyl-2′-deoxyuridine) which is incorporated into DNA during active DNA synthesis). […] EdU was detected after permeabilization by staining cells with Click-iT Plus reaction cocktail containing the Fluorescent dye picolylazide for 30 min at room temperature. Samples were then washed and analyzed using flow cytometer. […] Data were analyzed using FlowJo software. FIGS. 7A-B show MCF7-DoxyR cells have a reduced ability to proliferate by more than 60%, as measured using EdU-incorporation.
A general note: Flow cytometry measures light scatter and fluorescence of single cells or particles in a stream.

Assay [3] deals with MCF7-DoxyR cells. As to the kind of experiment: Cell migration, wound healing scratch assay. In kind it is cell-based. The note with it: MCF7-DoxyR cells (chronic doxycycline) vs MCF7 cells, 24 h. From the text: To test this hypothesis, the inventors generated a cancer cell sub-population metabolically synchronized toward a glycolytic phenotype by chronically treating MCF7 cells with the FDA-approved antibiotic doxycycline, a mitochondrial inhibitor. Briefly, MCF7 cells were obtained from ATCC and cultured in DMEM (Sigma Aldrich). MCF7 cells resistant to doxycycline (MCF7-DoxyR cells) were selected by a stepwise exposure to increasing concentrations of doxycycline. Specifically, MCF7 cells were initially exposed to 12.5 μM doxycycline, followed by 3 weeks of treatment with 25 μM doxycycline, followed by 3 weeks of treatment with 50 μM doxycycline. The doxycycline-resistant MCF7 cells were then routinely maintained in regular medium supplemented with 25 μM Doxycycline. It should be appreciated that other cancer cell lines and other mitochondrial (oxidation) inhibitors may be used.
The present approach further involves methods of analyzing the effects of chronic treatment on functionality by considering cell migration. […] The migration assay was evaluated using Incucyte Zoom (Essen Bioscience). The rate of migration was measured by quantifying the % of wound closure area, determined using the software ImageJ, according to the formula: % of wound closure=[(At=0 h−At=Δ h)/At=0 h]×100%. […] Statistical significance was measured using the t-test. […]

Setting [4] is: Homo sapiens, mammosphere formation, MCF7 DoxyR cells, read-out: IC-50, DoxyR CSC propagation.
Setting [5] is: Homo sapiens, MCF7, 120 h, read-out: inhibition of CSC propagation of MCF7-DoxyR cells.
Setting [6] is: Homo sapiens, 120 h, mammosphere formation, MCF7 DoxyR cells, 5 days, read-out: IC-50, DoxyR CSC propagation.

Each structure is given as a SMILES string. Like-named read-outs stand apart in the source and are kept apart here.

What is called inhibition is the percentage by which the read-out fell short of the control.

Regarding `O=CC[C@@H](O)[C@H](O)[C@H](O)CO` [2-DG, 2-deoxy-glucose], the inhibition at 10000 µM in the assay on MCF7-DoxyR cells [1] (Homo sapiens, MCF7, 10 mM 2-DG, read-out: inhibition of propagation of DoxyR CSCs) is above 90%. In addition, in the assay with MCF7-DoxyR cells [1] (Homo sapiens, MCF7, 20 mM 2-DG, read-out: inhibition of propagation of DoxyR CSCs), the inhibition at 20000 µM was 100%.

For the compound `O=C1C(O)=C([C@H]2CC[C@H](c3ccc(Cl)cc3)CC2)C(=O)c2ccccc21` [Atovaquone], in the assay on MCF7-DoxyR cells [1] (Homo sapiens, MCF7, 120 h, 1 μM Atovaquone, mammospheres, 5 days), the inhibition at 1 µM is above 85%.

Consider `COc1ccc2cc3[n+](cc2c1OC)CCc1cc2c(cc1-3)OCO2` [Berberine, Berberine Chloride], for which the IC50 in the assay on MCF7-DoxyR cells [1] (setting [4]) was around 1 µM.

Regarding `CCN(CC)CCCC(C)Nc1ccnc2cc(Cl)ccc12` (centres unmarked) [Chloroquine], in the assay on MCF7-DoxyR cells [1] (setting [5]), the inhibition at 25 µM is above 75% and the inhibition at 50 µM was above 90%.

On to `CCc1c2c(nc3ccc(OC(=O)N4CCC(N5CCCCC5)CC4)cc13)-c1cc3c(c(=O)n1C2)COC(=O)[C@]3(O)CC` [Irinotecan], for which the IC50 in the assay with MCF7-DoxyR cells [1] (setting [6]) is around 0.5 µM.

As for `O=C(Nc1ccc([N+](=O)[O-])cc1Cl)c1cc(Cl)ccc1O` [Niclosamide], the IC50 in the assay with MCF7-DoxyR cells [1] (setting [6]) was around 0.1 µM.

For `CNC(=O)c1cc(Oc2ccc(NC(=O)Nc3ccc(Cl)c(C(F)(F)F)c3)cc2)ccn1` [Sorafenib], the IC50 with MCF7-DoxyR cells [1] (Homo sapiens, MCF7, read-out: IC-50, DoxyR CSC propagation) lay in the range of 0.5 to 1 µM.

For the compound `CC(C)(C)C(O)/C=C/c1ccc2c(c1)OCO2` (centres unmarked) [Stiripentol], in the assay with MCF7-DoxyR cells [1] (setting [4]), the IC50 is 10 to 50 µM.

On to `O=C1O[C@H]([C@@H](O)CO)C(O)=C1O` [Vitamin C, ascorbic acid], for which the IC50 was 1000 µM with MCF7 CSCs and 100 to 250 µM in the assay on MCF7-DoxyR cells [1] (setting [4]). For the same compound, the inhibition at 250 µM with MCF7-DoxyR cells [1] (Homo sapiens, MCF7, 250 μM Vitamin C) was above 90%. This compound displayed an inhibition at 500 µM with MCF7-DoxyR cells [1] (Homo sapiens, MCF7, 500 μM Vitamin C) of 100%. For the same compound, the “fold more sensitive, DoxyR CSCs vs control MCF7 CSCs” value with MCF7-DoxyR cells [1] (ratio of IC-50 in MCF7 CSCs to DoxyR CSCs, identical assay conditions) is reported as 4-10 fold.

For `C[C@H]1c2cccc(O)c2C(=O)C2=C(O)[C@]3(O)C(=O)C(C(N)=O)=C(O)[C@@H](N(C)C)[C@@H]3[C@@H](O)[C@@H]21` [doxycycline], the “reduction in ability to proliferate (EdU-incorporation)” value in the assay on MCF7-DoxyR cells [2] is “more than 60%”. Also, in the assay with MCF7-DoxyR cells [3], the “reduction in cell migration (scratch assay)” value is “greater than 50%”.
